# Measurements: US20050042293A1, “Polymeric systems for drug delivery and uses thereof” (The University of British Columbia, priority 1997, published 2005)
# Where two headings read alike, the source gives them in different places.
# Legend:
# [1] = cited from earlier work
# LNCaP cells [2] = assay: LNCaP cell proliferation in vitro (crystal violet, 492 nm absorbance); type: cell-based, human; conditions: for % Growth: relative to control wells (100%)
# Method: LNCap cells are human metastatic prostate adenocarcinoma cells that are used as a model for prostate cancer (see, e.g., Pousette et al., Prostate 31:198, 1997). In one study, LNCaP cells were seeded at concentrations of 2×10^3 and 1×10^3 cells/well in 96 well plates. […] After incubation, the cells were fixed with 1% glutaraldehyde solution, and stained for 5 minutes with 0.5% crystal violet. The dye was successively eluted with 100 μl of buffer solution and the absorbance was read on a Titertek Multiskan microplate reader using a wavelength of 492 nm absorbance. Cell growth was expressed as a percentage relative to control wells in the absence of the compound (set at 100%).
# [3] = Water solubility studies by the present inventors
# [4] = In vitro drug release from TB:MePEG350 pastes into PBS/albumin with octanol phase; type: physicochemical; conditions: 10% drug-loaded TB:MePEG350 (40:60) paste
# Method: Fifteen milligrams of each composition were placed in 20 mL glass scintillation vials and cooled to 4° C. to form uniform solid pellets. Five milliliters of ice cold phosphate-buffered saline (PBS; pH 7.4) containing 0.2% bovine serum albumin (Fraction 4, Boehringer Mannheim) were placed on top of the pellet followed by 5 mL of octanol (Fisher Scientific). The octanol formed an upper imiscible phase on top of the PBS so that any drug released into the PBS would partition into the octanol phase.
# UV/VIS analysis was performed by determining the absorbance at the specified wavelength. Calibration graphs of the drugs in octanol were established by measuring the absorbance of a set of standards of each drug in octanol in the 0 to 50 μg/mL concentration range.
# LNCaP cells [5] = assay: Apoptosis / DNA fragmentation assay in LNCaP cells; type: cell-based, human
# [6] = single dose in humans; cited from earlier work
# [7] = Drug-dependent solidification: time for paste pellets to break up under stirring at 300 rpm at 37° C.; type: physicochemical; conditions: 10% w/w drug in 40:60 (TB:MePEG350) paste; 1 hour at 37° C. then 300 rpm
# Method: Fifteen milligrams of each composition were placed in a 20 mL glass scintillation vial and cooled to 4° C. to form uniform solid pellets. Five milliliters of ice cold phosphate-buffered saline (PBS; pH 7.4) containing 0.2% bovine serum albumin (Fraction 4, Boehringer Mannheim) were placed on top of the pellet, and the vial was placed in a stationary position in a 37° C. oven for 1 hour. At this time, a stir bar was placed in the vial and stirring was commenced at 300 rpm until the paste pellet disintegrated.
smiles,measurement,setting,value
C[C@@H]1[C@H](O)[C@@H](C)/C=C/C=C/C=C/C=C/C=C/C=C/C=C/[C@H](O[C@@H]2O[C@H](C)[C@@H](O)[C@H](N)[C@@H]2O)C[C@@H]2O[C@](O)(C[C@@H](O)C[C@@H](O)[C@H](O)CC[C@@H](O)C[C@@H](O)CC(=O)O[C@H]1C)C[C@H](O)[C@H]2C(=O)O [Amphotericin],solubility in water (in words),[1]; water at pH 6 to 7,insoluble in water
same,solubility in water (in words),[1]; water,insoluble in water
same,solubility,physchem; water,< 2 µg/mL
O=C1c2c(O)cccc2Cc2cccc(O)c21 [Anthralin],solubility in water (in words),[1]; water,practically insoluble in water
C[C@H]1C[C@H]2[C@@H]3CCC4=CC(=O)C=C[C@]4(C)[C@@]3(F)[C@@H](O)C[C@]2(C)[C@@]1(O)C(=O)CO [Betamethasone],solubility in water,[1]; water,190 µg/mL
CC[C@@]1(O)C(=O)OCc2c1cc1n(c2=O)Cc2cc3ccccc3nc2-1 [Camptothecin],percentage of cells to which the drug was toxic,LNCaP cells [2]; 0.001 nM,over 60%
same,492 nm Absorbance,"LNCaP cells [2]; 0.001 nM, 5 days",0.169 ± 0.05
same,% Growth,"LNCaP cells [2]; 0.001 nM, 5 days",36%
same,492 nm Absorbance,"LNCaP cells [2]; 0.05 nM, 5 days",0.14 ± 0.04
same,% Growth,"LNCaP cells [2]; 0.05 nM, 5 days",29%
same,492 nm Absorbance,"LNCaP cells [2]; 0.1 nM, 5 days",0.10 ± 0.02
same,% Growth,"LNCaP cells [2]; 0.1 nM, 5 days",21%
same,492 nm Absorbance,"LNCaP cells [2]; 1 nM, 5 days",0.10 ± 0.02
same,% Growth,"LNCaP cells [2]; 1 nM, 5 days",21%
same,492 nm Absorbance,"LNCaP cells [2]; 10 nM, 5 days",0.088 ± 0.02
same,% Growth,"LNCaP cells [2]; 10 nM, 5 days",17%
same,492 nm Absorbance,"LNCaP cells [2]; 100 nM, 5 days",0.038 ± 0.01
same,% Growth,"LNCaP cells [2]; 100 nM, 5 days",8%
same,IC50 against LNCaP cells (in words),LNCaP cells [2]; inferred from Table 12,femtomolar concentration range
same,solubility in water,[1]; water,1 to 2 µg/mL
same,solubility in water (in words),[1]; water,insoluble in water
same,solubility,[3]; water,< 2 µg/mL
COc1cc(/C=C/C(=O)CC(=O)/C=C/c2ccc(O)c(OC)c2)ccc1O [Curcumin],solubility in water (in words),[1]; water,practically insoluble in water
same,solubility,physchem; water,< 2 µg/mL
C[C@@H]1C[C@H]2[C@@H]3CCC4=CC(=O)C=C[C@]4(C)[C@@]3(F)[C@@H](O)C[C@]2(C)[C@@]1(O)C(=O)CO [Dexamethasone],solubility in water,[1]; water,10 µg/mL
O=c1c(-c2ccc(O)cc2)coc2cc(O)cc(O)c12 [Genistein],total encapsulated drug released,[4]; by day 7,50%
same,solubility in water (in words),[1]; water,practically insoluble in water
same,solubility in water (in words),"[1]; water, listed as genistein",insoluble in water
same,water solubility,[3]; water,approximately 1 μg/mL
same,solubility,"[3]; water, water solubility",< 2 µg/mL
COc1ccc2c(c1)c(CC(=O)O)c(C)n2C(=O)c1ccc(Cl)cc1 [Indomethacin],solubility in water (in words),[1]; water,practically insoluble in water
CC(=O)O[C@H]1C(=O)[C@@]2(C)[C@H]([C@H](OC(=O)c3ccccc3)[C@]3(O)C[C@H](OC(=O)[C@H](O)[C@@H](NC(=O)c4ccccc4)c4ccccc4)C(C)=C1C3(C)C)[C@]1(OC(C)=O)CO[C@@H]1C[C@@H]2O [Paclitaxel],492 nm Absorbance,"LNCaP cells [2]; 0.001 nM, 5 days",0.049 ± 0.05
same,% Growth,"LNCaP cells [2]; 0.001 nM, 5 days",100%
same,492 nm Absorbance,"LNCaP cells [2]; 0.01 nM, 5 days",0.40 ± 0.03
same,% Growth,"LNCaP cells [2]; 0.01 nM, 5 days",81%
same,492 nm Absorbance,"LNCaP cells [2]; 0.05 nM, 5 days",0.36 ± 0.02
same,% Growth,"LNCaP cells [2]; 0.05 nM, 5 days",73%
same,492 nm Absorbance,"LNCaP cells [2]; 0.1 nM, 5 days",0.20 ± 0.03
same,% Growth,"LNCaP cells [2]; 0.1 nM, 5 days",40%
same,492 nm Absorbance,"LNCaP cells [2]; 1 nM, 5 days",0.025 ± 0.01
same,% Growth,"LNCaP cells [2]; 1 nM, 5 days",5%
same,492 nm Absorbance,"LNCaP cells [2]; 10 nM, 5 days",0.027 ± 0.01
same,% Growth,"LNCaP cells [2]; 10 nM, 5 days",5%
same,492 nm Absorbance,"LNCaP cells [2]; 100 nM, 5 days",0.033 ± 0.01
same,% Growth,"LNCaP cells [2]; 100 nM, 5 days",6%
same,lowest concentration causing inhibition of LNCaP cell growth,LNCaP cells [2]; 5 days,10 pM
same,IC50,"LNCaP cells [2]; Homo sapiens, LNCaP, 120 h, 5 days incubation, read-out: IC50, LNCaP cell growth",~90 pM
same,DNA fragmentation (gel electrophoresis),"LNCaP cells [5]; 100 nM, 18 hours of treatment",induced DNA fragmentation
same,apoptosis by optical microscopy,"LNCaP cells [5]; paclitaxel treated cells, intracellular apoptotic bodies",clear evidence of apoptosis
same,solubility in water,[1]; water,1 to 2 µg/mL
same,solubility in water (in words),[1]; water,insoluble in water
same,toxic limit,[6],200 mg
same,solubility,physchem; water,< 2 µg/mL
CC1=C(/C=C/C(C)=C/C=C/C(C)=C/C(=O)O)C(C)(C)CCC1 [Tretinoin],solubility in water (in words),[1]; water,practically insoluble in water
same,solubility in water (in words),"[1]; water, listed as tretinoin",insoluble in water
same,solubility,physchem; water,< 2 µg/mL
COc1cc2c(c(OC)c1OC)-c1ccc(OC)c(=O)cc1[C@@H](NC(C)=O)CC2 [colchicine],time paste pellet stayed intact under stirring,[7],2.5 min
same,solubility,"[3]; pH 7.4, aqueous buffer, water solubility in PBS/albumin, PBS/albumin (pH 7.4)",> 500 µg/mL
CN(Cc1cnc2nc(N)nc(N)c2n1)c1ccc(C(=O)N[C@@H](CCC(=O)O)C(=O)O)cc1 [methotrexate],disintegration time under stirring,[7],30 s
same,encapsulated drug released,[4]; first 24 hours,almost all the encapsulated drug
same,solubility,"physchem; pH 7.4, aqueous buffer",> 500 µg/mL
C[C@@H]1[C@H](O)[C@@H](C)/C=C/C=C/CC/C=C/C=C/C=C/C=C/C(O[C@H]2O[C@H](C)[C@@H](O)[C@H](N)[C@@H]2O)CC2O[C@](O)(CC(O)C(O)CCC(O)CC(O)CC(O)CC(=O)O[C@H]1C)CC(O)C2C(=O)O (some centres unmarked) [nystatin],solubility in water (in words),[1]; water,insoluble in water
